Experiments:
Type in all cases: binding
[1] = biological target: T1, GST-fusion protein of the insulin receptor kinase domain (GST-InsRK) (Homo sapiens, UniProt P06213)
T1 construct: GST-fusion protein of the insulin receptor kinase domain (GST-InsRK)

[2] = biological target: T2, epidermal growth factor receptor (EGFR) (Homo sapiens, UniProt P00533); assay: EGF receptor tyrosine kinase labeling in A431 plasma membranes, MS identification of labeled peptide; conditions: probe 20 μM, 3 hours, solubilized A431 plasma membranes, anti-TAMRA capture, trypsin
T2 construct: Plasma membranes containing the epidermal growth factor receptor (EGFR) were prepared from the A431 human epidermoid cancer cell line; endogenous in cells; host or cells: A431 human epidermoid cancer cells (plasma membrane preparation, Triton X-100 solubilized)
Protocol: Plasma membranes containing the epidermal growth factor receptor (EGFR) were prepared from the A431 human epidermoid cancer cell line. Approximately 1×10^8 A431 cells were resuspended in 10 mls 20 mM HEPES, pH 7.5, 0.14M NaCl, 5 mM KCl, 0.1 mM EDTA, 0.1% glucose, and 0.035% sodium bicarbonate. The cells were lysed by Dounce homogenization, and the lysate was diluted into 80 mls of 20 mM sodium borate, pH 10.2, 0.1 mM EDTA. This mixture was placed on a rocker at 4° C. for 10 minutes, and the membranes from the mixture were isolated by centrifugation at 16,000 rpm for 30 minutes in a Beckman JA17 rotor. The plasma membranes were further purified by centrifugation over a 40%/30% sucrose cushion at 30000 rpm for 60 minutes in a Beckman MLS 50 swinging bucket rotor. The plasma membranes were collected at the aqueous—sucrose interface, and solubilized in buffer containing 20 mM HEPES, pH 7.5, 50 mM NaCl, 20 mM MgCl2, 0.05 mg/ml BSA, and 0.1% Triton-X-100.
Solubilized A431 plasma membranes (˜0.5 mg total protein) were incubated with (5)(20 μM) for 3 hours. […]
The proteins in this band were trypsinized, and the tryptic peptides were extracted. […] After elution from the beads the captured fragment was analyzed by mass spectroscopy (MS) to identify the peptide sequence: […]

[3] = biological target: EGF receptor tyrosine kinase (Homo sapiens, UniProt P00533); assay: Effect of inhibitors on EGF receptor tyrosine kinase labeling by ANBP (5) in A431 plasma membranes; conditions: inhibitor 50 μM, 5 minutes pretreatment, then AX0231 20 μM for 60 minutes; compared with 90% by the EGF inhibitor at 5 μM
Protocol: After 60 minutes, the reaction was quenched by the addition of gel sample buffer. The samples were electrophoresed on a 10% SDS-PAGE gel. The gel was then scanned on a FMBIO2 gel scanner, and the intensity of labeling of the EGFR was quantitated by ImageAnalysis.

T1 sequence (P06213 1023-1298 limits assumed): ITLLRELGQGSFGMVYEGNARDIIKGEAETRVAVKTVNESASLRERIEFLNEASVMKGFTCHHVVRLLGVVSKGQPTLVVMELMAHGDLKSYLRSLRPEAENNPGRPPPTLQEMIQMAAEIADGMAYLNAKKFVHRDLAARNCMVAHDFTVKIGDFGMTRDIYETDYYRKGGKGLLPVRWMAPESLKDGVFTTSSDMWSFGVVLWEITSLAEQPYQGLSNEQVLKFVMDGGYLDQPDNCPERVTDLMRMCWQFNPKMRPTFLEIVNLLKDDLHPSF

Row | inhibition of probe labeling of EGFR [3] | Molecule | labeling of GST-InsRK by probe [1] | site of labeling in EGFR (probe-labeled tryptic peptide, K*) [2]
1 |  | 5′-FSB-amido-2′(3′)-(2-TAMRA-amidoethylcarbamoyl)adenosine [Compound 5] | labeled | located within the active site of the protein
2 | significantly less inhibition | COC(=O)c1ccc(NCc2cc(O)ccc2O)cc1 [AG957] |  | 
